# Experimental data: patent US20190337924A1, “SUBSTITUTED HYDANTOIN AND THIOHYDANTOIN DERIVATIVES AS ANDROGEN RECEPTOR ANTAGONISTS” (Janssen Pharmaceutica NV, priority 2016, published 2019)
# Structures can show the parent of a compound that is named as a salt.
# What was measured:
# VCaP cells = assay: Prostate Cancer Cell Viability Assay-VCaP; format: cell-based; details: Homo sapiens, 120 h, 10% Charcoal Stripped Serum, 5 days, CellTiter-Glo, * n = 1
# Description: VCaP cells were counted and seeded into black 384-well plates with clear bottoms at a concentration of 125,000 cells per mL in phenol red-free DMEM containing 10% Charcoal Stripped Serum. 16 μL of the suspension was added per well and incubated for 48 h to allow the cells to adhere. After 48 hours, a 12 point serial semilog dilution of each compound was added to the cells in 16 μL at a final concentration of 100 µM to 0.0003 μM. The compounds of Formula (I) were also run in antagonist mode using 30 pM R1881 in which 8 μL of the compound was added to the cells followed by 8 μL of R1881. After 5 days of incubation at 37° C., 16 μL Of CellTiter-Glo (Promega) was added to the cells and the relative luminescence units (RLUs) of each well determined using the Envision. The percent stimulation and % inhibition were determined for each sample and plotted using GraphPad Prism.
# LNCaP F876L = assay: LNCaP Proliferation Assay, LNCaP F876L; format: cell-based; details: Homo sapiens, 96 h, 1% CSS, 4 days, CellTiter-Glo, normalized to 0.1 nM R1881 stimulation
# Description: (§1) LNCaP cells were expanded in RPMI 10% FBS in T150 flasks. The cells were dislodged with 0.25% Trypsin, washed in complete media, centrifuged (300 g, 3 min), and the supernatant aspirated. The cells were resuspended in RPMI phenol-red free media with 1% charcoal-stripped serum (CSS) and counted using a ViCELL (Beckman-Coulter). 7500 cells were added to each well of a white optical bottom 384-well plate and incubated for 2 days at 37° C. 5% CO2. Compound dilutions were prepared in RPMI CSS using 50 mM stock solutions and added to the cells either alone (agonist mode) or in combination with 0.1 nM R1881 (antagonist mode). The plates were incubated for 4 days, followed by addition of CellTiter-Glo Luminescent Cell Viability kit reagent (Promega). The plates were placed on a shaker at 3000 rpm for 10 minutes and then read on an EnVision plate reader (Perkin Elmer) using Luminescence assay default settings. The data was analyzed, normalized to 0.1 nM R1881 stimulation, and plotted in GraphPad Prism.
# LNCaP WT = assay: LNCaP Proliferation Assay, LNCaP WT; format: cell-based; details: Homo sapiens, 96 h, 1% CSS, 4 days, CellTiter-Glo, normalized to 0.1 nM R1881 stimulation
# Description: as §1
Structure (SMILES),IC50 (VCaP cells) [µM],IC50 (LNCaP F876L) [µM],IC50 (LNCaP WT) [µM],melting point [°C]
"CC1(C)C(=O)N(c2ccc(C#N)c(C(F)(F)F)c2)C(=S)N1c1ccc(OC2CCNCC2)cc1 [Compound 1, 4-(4,4-Dimethyl-5-oxo-3-(4-(piperidin-4-yloxy)phenyl)-2-thioxoimidazolidin-1-yl)-2-(trifluoromethyl)benzonitrile]",2.31,–,–,–
"CN1CCC(Oc2ccc(N3C(=S)N(c4ccc(C#N)c(C(F)(F)F)c4)C(=O)C3(C)C)cc2)CC1 [Compound 2, 4-(4,4-Dimethyl-3-(4-((1-methylpiperidin-4-yl)oxy)phenyl)-5-oxo-2-thioxoimidazolidin-1-yl)-2-(trifluoromethyl)benzonitrile hydrochloride]",–,1.31,1.37,–
"CC1(C)C(=O)N(c2ccc(C#N)c(C(F)(F)F)c2)C(=S)N1c1ccc(OC2CCNCC2)nc1 [Compound 3, 4-(4,4-Dimethyl-5-oxo-3-(6-(piperidin-4-yloxy)pyridin-3-yl)-2-thioxoimidazolidin-1-yl)-2-(trifluoromethyl)benzonitrile hydrochloride]",4.86,–,–,–
"CN1CCC(Oc2ccc(N3C(=S)N(c4ccc(C#N)c(C(F)(F)F)c4)C(=O)C3(C)C)cn2)CC1 [Compound 4, 4-(4,4-Dimethyl-3-(6-((1-methylpiperidin-4-yl)oxy)pyridin-3-yl)-5-oxo-2-thioxoimidazolidin-1-yl)-2-(trifluoromethyl)benzonitrile hydrochloride]",1.66,0.85,0.46,–
"CC1(C)C(=O)N(c2ccc(C#N)c(C(F)(F)F)c2)C(=S)N1c1cnc(OC2CCNCC2)nc1 [Compound 5, 4-(4,4-Dimethyl-5-oxo-3-(2-(piperidin-4-yloxy)pyrimidin-5-yl)-2-thioxoimidazolidin-1-yl)-2-(trifluoromethyl)benzonitrile]",13.2,0.95,1.04,239
"CN1CCC(Oc2ncc(N3C(=S)N(c4ccc(C#N)c(C(F)(F)F)c4)C(=O)C3(C)C)cn2)CC1 [Compound 6, 4-(4,4-Dimethyl-3-(2-((1-methylpiperidin-4-yl)oxy)pyrimidin-5-yl)-5-oxo-2-thioxoimidazolidin-1-yl)-2-(trifluoromethyl)benzonitrile]",18.4,–,–,204.9
"CC1(C)C(=O)N(c2ccc(C#N)c(Cl)c2)C(=S)N1c1ccc(OC2CCNCC2)cc1 [Compound 7, 2-Chloro-4-(4,4-dimethyl-5-oxo-3-(4-(piperidin-4-yloxy)phenyl)-2-thioxoimidazolidin-1-yl)benzonitrile hydrochloride]",1.44,31.2,10,–
"CN1CCC(Oc2ccc(N3C(=S)N(c4ccc(C#N)c(Cl)c4)C(=O)C3(C)C)cc2)CC1 [Compound 8, 2-Chloro-4-(4,4-dimethyl-3-(4-((1-methylpiperidin-4-yl)oxy)phenyl)-5-oxo-2-thioxoimidazolidin-1-yl)benzonitrile hydrochloride]",3.48,–,–,–
"CC1(C)C(=O)N(c2ccc(C#N)c(Cl)c2)C(=S)N1c1ccc(OC2CCNCC2)nc1 [Compound 9, 2-Chloro-4-(4,4-dimethyl-5-oxo-3-(6-(piperidin-4-yloxy)pyridin-3-yl)-2-thioxoimidazolidin-1-yl)benzonitrile hydrochloride]",1.68,–,–,–
"CN1CCC(Oc2ccc(N3C(=S)N(c4ccc(C#N)c(Cl)c4)C(=O)C3(C)C)cn2)CC1 [Compound 10, 2-Chloro-4-(4,4-dimethyl-3-(6-((1-methylpiperidin-4-yl)oxy)pyridin-3-yl)-5-oxo-2-thioxoimidazolidin-1-yl)benzonitrile hydrochloride]",5.54,0.83,0.46,–
"N#Cc1ccc(N2C(=O)C3(CCC3)N(c3ccc(OC4CCNCC4)cc3)C2=S)cc1C(F)(F)F [Compound 11, 4-(8-Oxo-5-(4-(piperidin-4-yloxy)phenyl)-6-thioxo-5,7-diazaspiro[3.4]octan-7-yl)-2-(trifluoromethyl)benzonitrile]",1.06,–,–,172.4
"CN1CCC(Oc2ccc(N3C(=S)N(c4ccc(C#N)c(C(F)(F)F)c4)C(=O)C34CCC4)cc2)CC1 [Compound 12, 4-(5-(4-((1-Methylpiperidin-4-yl)oxy)phenyl)-8-oxo-6-thioxo-5,7-diazaspiro[3.4]octan-7-yl)-2-(trifluoromethyl)benzonitrile]",21,–,–,99.3
"N#Cc1ccc(N2C(=O)C3(CCC3)N(c3ccc(OC4CCNCC4)nc3)C2=S)cc1C(F)(F)F [Compound 13, 4-(8-Oxo-5-(6-(piperidin-4-yloxy)pyridin-3-yl)-6-thioxo-5,7-diazaspiro[3.4]octan-7-yl)-2-(trifluoromethyl)benzonitrile hydrochloride]",0.54,–,109,–
"CN1CCC(Oc2ccc(N3C(=S)N(c4ccc(C#N)c(C(F)(F)F)c4)C(=O)C34CCC4)cn2)CC1 [Compound 14, 4-(5-(6-((1-Methylpiperidin-4-yl)oxy)pyridin-3-yl)-8-oxo-6-thioxo-5,7-diazaspiro[3.4]octan-7-yl)-2-(trifluoromethyl)benzonitrile]",13.1,1.25,2.44,–
"N#Cc1ccc(N2C(=O)C3(CCC3)N(c3cnc(OC4CCNCC4)nc3)C2=S)cc1C(F)(F)F [Compound 15, 4-(8-Oxo-5-(2-(piperidin-4-yloxy)pyrimidin-5-yl)-6-thioxo-5,7-diazaspiro[3.4]octan-7-yl)-2-(trifluoromethyl)benzonitrile]",–,1.53,3.43,137.4
"CN1CCC(Oc2ncc(N3C(=S)N(c4ccc(C#N)c(C(F)(F)F)c4)C(=O)C34CCC4)cn2)CC1 [Compound 16, 4-(5-(2-((1-Methylpiperidin-4-yl)oxy)pyrimidin-5-yl)-8-oxo-6-thioxo-5,7-diazaspiro[3.4]octan-7-yl)-2-(trifluoromethyl)benzonitrile]",5.29,–,–,161.9
"Cc1cc(N2C(=O)C3(CCC3)N(c3ccc(OC4CCN(C)CC4)cc3)C2=S)ccc1C#N [Compound 17, 2-Methyl-4-(5-(4-((1-methylpiperidin-4-yl)oxy)phenyl)-8-oxo-6-thioxo-5,7-diazaspiro[3.4]octan-7-yl)benzonitrile]",3.42,–,–,–
"Cc1cc(N2C(=O)C3(CCC3)N(c3ccc(OC4CCN(C)CC4)nc3)C2=S)ccc1C#N [Compound 18, 2-Methyl-4-(5-(6-((1-methylpiperidin-4-yl)oxy)pyridin-3-yl)-8-oxo-6-thioxo-5,7-diazaspiro[3.4]octan-7-yl)benzonitrile]",12.1,0.84,1.53,–
"COc1cc(N2C(=O)C3(CCC3)N(c3ccc(OC4CCN(C)CC4)cc3)C2=S)ccc1C#N [Compound 19, 2-Methoxy-4-(5-(4-((1-methylpiperidin-4-yl)oxy)phenyl)-8-oxo-6-thioxo-5,7-diazaspiro[3.4]octan-7-yl)benzonitrile]",9.87,21.4,27.4,–
"COc1cc(N2C(=O)C3(CCC3)N(c3ccc(OC4CCN(C)CC4)nc3)C2=S)ccc1C#N [Compound 20, 2-Methoxy-4-(5-(6-((1-methylpiperidin-4-yl)oxy)pyridin-3-yl)-8-oxo-6-thioxo-5,7-diazaspiro[3.4]octan-7-yl)benzonitrile]",1.4,1.69,3.65,–
"N#Cc1ccc(N2C(=O)C3(CCC3)N(c3ccc(OC4CCNCC4)cc3)C2=S)cc1Cl [Compound 21, 2-Chloro-4-(8-oxo-5-(4-(piperidin-4-yloxy)phenyl)-6-thioxo-5,7-diazaspiro[3.4]octan-7-yl)benzonitrile]",1.25,3.78,2.23,211
"CN1CCC(Oc2ccc(N3C(=S)N(c4ccc(C#N)c(Cl)c4)C(=O)C34CCC4)cc2)CC1 [Compound 22, 2-Chloro-4-(5-(4-((1-methylpiperidin-4-yl)oxy)phenyl)-8-oxo-6-thioxo-5,7-diazaspiro[3.4]octan-7-yl)benzonitrile]",0.58,3.78,2.83,152.2
"N#Cc1ccc(N2C(=O)C3(CCC3)N(c3ccc(OC4CCNCC4)nc3)C2=S)cc1Cl [Compound 23, 2-Chloro-4-(8-oxo-5-(6-(piperidin-4-yloxy)pyridin-3-yl)-6-thioxo-5,7-diazaspiro[3.4]octan-7-yl)benzonitrile hydrochloride]",0.54,–,3.19,–
